Laboratory results: patent US4963570A, “1-(acetylaminophenyl)-2-aminopropanone derivatives and pharmaceutical compositions thereof” (Laboratoire L. Lafon, priority 1983, dated 1990)
Structures can show the parent of a compound that is named as a salt.

What was measured:
[1] = acute toxicity, intraperitoneal (lethal doses); format: in vivo, mouse; details: mouse, in vivo, ip; male mice
Procedure: (§1) By intraperitoneal administration to male mice, the LD-30 (lethal dose for 30% of the animals tested) is of the order of 128 mg/kg and the LD-50 is of the order of about 200 mg/kg.

male mice = assay: acute toxicity, intraperitoneal (lethal doses); format: in vivo, mouse; details: i.p.
Procedure: as §1

dogs = assay: cardiovascular action in anesthetized dogs; format: in vivo, dog
Procedure: Four dogs (average weight: 13.8 kg), anesthetized with nembutal, receive CRL 41 220 by intraduodenal administration at successive doses of 0.1 mg/kg, 0.5 mg/kg, 1 mg/kg, 2.5 mg/kg, 5 mg/kg and 10 mg/kg. The blood pressure, the heart beat, the flow rate through the femoral artery, the flow rate through the vertebral artery and the rectal and/or skin temperature are measured and the coloration of the skin and the bile (collected by catheterization of the bile duct after ligature of the cystic duct) is observed.

[2] = test system: spleen cells expressing a direct IgM antibody response; assay: test for cells forming lysis areas (PFC IgM, Cunningham); format: in vivo, mouse; details: dose not stated
Procedure: Immunological assays were carried out in order to point out the interest of CRL 41 240 as an immunomodulating agent. Specifically, the test used was the so-called test for cells forming lysis areas, described by A. J. […] et al. ("Further improvements in the plaque technique for detecting simple antibody forming cells"), Immunology 14, pages 599-601 (1968).
The test for cells forming lysis areas (or PFC IgM) explores the humoral immunity. Four days after immunization with a T-dependent antigen (in this case red blood corpuscles of sheep), the spleen cells expressing a direct IgM antibody response are counted. The mice used for this purpose are conventional female OF1 mice devoid of specific pathogenic organisms, weighing from 20 to 30 g and divided up into a control group of 14 animals and groups each containing 7 animals per dose and per product to be studied, administered orally on the same day as the antigen. An activity index I is calculated for each dose of product according to the following equation: [formula]
This test is performed at least twice for each dose of test product [C(control amimals), 0.01, 0.1, 10 and 100 mg/kg] and a statistical study is undertaken using the Student t test after variance analysis on the number of lyses per spleen.

[3] = test system: delayed hypersensitivity to the red blood corpuscles of sheep; assay: delayed hypersensitivity to the red blood corpuscles of sheep (Miller); format: in vivo; details: dose not stated
LEWIS' carcinoma = LEWIS' carcinoma in mice; format: in vivo, mouse
Procedure: a. animals: consanguineous female mice (C57 BL6), b. infecting cells: 10^5 cells injected subcutaneously into the back of the animals, c. monitoring of the tumor growth by measurement of the tumor twice a week, d. evaluation of the pulmonary metastases after fixation of the lungs of the dead animals in BOUIN's fixative.
Using the same procedures, the association of CRL 41 220 with 150 mg/kg of cyclophosphamide gives the results collated in Table II below.

man = assay: clinical trials; format: in vivo, human; details: man, oral, 250 to 500 mg
CNS = assay: overall neuropsychopharmacological (CNS) profile; format: in vivo, mouse; rat; details: i.p., mice and rats; dose not stated
Procedure: The neuropsychopharmacological study of CRL 41 219 was carried out as indicated above for CRL 41 224.
The neuropsychopharmacological study of CRL 41 220 was carried out in accordance with the procedures given above for CRL 41 224.

immunological properties = assay: immunological properties, overall; format: in vivo; details: dose not stated
Text: The present 1-(acetylaminophenyl)-2-aminopropanone derivatives are useful in therapy. They all act on the CNS, more precisely as antidepressants. They have a stimulant or excitant component in their neuropsychopharmacological profile.

[4] = dogs, after accumulated 19.1 mg/kg intraduodenal
[5] = dogs, after intraduodenal CRL 41 220
[6] = CRL 41 220 2 mg/kg + cyclophosphamide 150 mg/kg

## CC(=O)Nc1c(Cl)cc(C(=O)C(C)NC(C)C)cc1Cl (stereo not shown) [CRL 41 220, 1-(4-acetylamino-3,5-dichlorophenyl)-2-isopropylaminopropanone hydrochloride]
[1]
  LD50: ~500 mg/kg
Male mice
  LD-0 (maximum non-lethal dose): greater than 128 mg/kg
  LD-30: about 250 mg/kg
dogs; 4 dogs, intraduodenal
  respiratory stimulation: induces respiratory stimulation in the 4 dogs
dogs; [4]
  diastolic blood pressure before isoprenaline: 112 mm Hg
  diastolic blood pressure with 10 μg/kg of isoprenaline: 47 mm Hg
  effect of isoprenaline on the diastolic blood pressure after CRL 41 220: very slightly modified as regards the diastolic blood pressure
  effect of isoprenaline on the heart beat after CRL 41 220: not modified as regards the heart beat
  heart beat before isoprenaline: 221 beats/minute
  heart beat with 10 μg/kg of isoprenaline: 275 beats/minute
dogs; [5]
  effect of 1 mg/kg of propanolol at the end of the test: suppresses all the effects of CRL 41 220
  systolic blood pressure before noradrenaline: 202 mm Hg
  systolic blood pressure with 2 μg/kg of noradrenaline: 272 mm Hg
dogs; dogs, after intraduodenal CRL 41 220, noradrenaline 2 μg/kg
  hypertension induced by noradrenaline: hypertension induced by noradrenaline is reduced
dogs; dogs, intraduodenal
  overall cardiovascular action: acts as a hypotensive agent
  rectal and skin temperatures: increases the rectal and skin temperatures
dogs; dogs, intraduodenal, 1 mg/kg
  femoral flow rate: increases the vertebral flow rate as from a dose of 0.5 mg/kg, the femoral flow rate
dogs; dogs, intraduodenal, 2.5 mg/kg
  heart beat: increases the vertebral flow rate as from a dose of 0.5 mg/kg, the femoral flow rate at a dose of 1 mg/kg and the heart beat
dogs; dogs, intraduodenal, 10 mg/kg
  hypotensive effect: hypotensive effect
dogs; dogs, intraduodenal, as from 0.5 mg/kg
  vertebral flow rate: increases the vertebral flow rate
[2]
  immunomodulating activity, test for cells forming lysis areas: immunomodulating stimulant capacity
[3]
  immunomodulating activity, delayed hypersensitivity: immunomodulating stimulant capacity
LEWIS' carcinoma; [6]
  animals treated still being alive several weeks after the experiment: all
  protective action in respect of LEWIS' carcinoma: unquestionable protective
LEWIS' carcinoma; CRL 41 220 5 mg/kg + cyclophosphamide 150 mg/kg
  differences compared with cyclophosphamide used by itself: substantially few
LEWIS' carcinoma; CRL 41 220 100 mg/kg + cyclophosphamide 150 mg/kg
  toxicity of the association compared with cyclophosphamide used by itself: increase in the toxicity
LEWIS' carcinoma; female C57 BL6 mice, alone
  activity in LEWIS' carcinoma, used by itself: inactive
LEWIS' carcinoma; mice
  activity in the study of LEWIS' carcinoma, overall statement: active
man
  clinical result: circulatory disorders and insufficient immunoreaction (recurrent herpes, rheumatoid polyarthritis, severe measles): good results
CNS
  overall action on the CNS: antidepressant and stimulant effects
Immunological properties
  immunological properties, overall: beneficial immunomodulating effects
